# Columns and labels:
# [1] = tested on: Glutamate, NMDA, Phencyclidine Site (Ionotropic); experiment: Radio-ligand binding assay, Glutamate NMDA phencyclidine site; details: 10 μM l-THBr; radioligand [3H]TCP
# Procedure: (§1) To determine the possible targets of l-THBr action, the binding affinities of l-THBr to neurotransmitter receptors known to be involved in sedation, hypnosis and anxiety were investigated. Radio-ligand binding assays were performed by Caliper Lifescience (Hopkinton, MA, USA). The screening was carried out at a concentration of 10 μM l–THBr to test its ability to inhibit the binding of radioligands to their corresponding receptors. The results were expressed as percentage of inhibition of labeled ligand binding to individual receptors. Significant binding activity was defined as ≥50%.
# [2] = tested on: male CD-1 ICR mice; experiment: Light-dark box test; format: in vivo; details: l-THBr 1 or 5 mg/kg i.p., 30 min before test, P < 0.05 vs vehicle
# From the text: The light-dark box test is a sensitive model to detect activity in disorders related to anxiety, based on the innate aversion of rodents to brightly lit areas and on their spontaneous exploratory behavior in response to a novel environment. The light-dark transition box is a polypropylene animal cage (44 cm × 21 cm × 21 cm), which is divided into two compartments, a light box (illuminated by a 60 W light source with 1000 lx light intensity) and a dark box. Forty-eight male CD-1 ICR mice were placed in the light box 30 min after l–THBr or DZP injection and allowed to move freely to both boxes for 5 min. The number of transitions between the two boxes were recorded by a video camera.
# [3] = tested on: T1, Serotonin, 5HT6 (h); experiment: Radio-ligand binding assay, Serotonin 5HT6; design: species or system human; details: 10 μM l-THBr; radioligand [3H]-LSD
# T1 construct: Caliper Lifescience
# Procedure: as §1
# [4] = target: T2, 5-HT1A receptors in rat hippocampus (Rattus norvegicus, UniProt P19327); experiment: [35S]GTPγS assay for 5-HT1A receptor activity in rat hippocampus; format: biochemical; details: rat hippocampus membranes; read-out: EC50, increase in [35S]GTPγS binding
# T2 construct: rat hippocampal tissues highly expressing 5-HT1A receptors were prepared as previously described; from tissue; host or cells: SD rat hippocampus membranes
# T2 sequence (P19327 whole entry): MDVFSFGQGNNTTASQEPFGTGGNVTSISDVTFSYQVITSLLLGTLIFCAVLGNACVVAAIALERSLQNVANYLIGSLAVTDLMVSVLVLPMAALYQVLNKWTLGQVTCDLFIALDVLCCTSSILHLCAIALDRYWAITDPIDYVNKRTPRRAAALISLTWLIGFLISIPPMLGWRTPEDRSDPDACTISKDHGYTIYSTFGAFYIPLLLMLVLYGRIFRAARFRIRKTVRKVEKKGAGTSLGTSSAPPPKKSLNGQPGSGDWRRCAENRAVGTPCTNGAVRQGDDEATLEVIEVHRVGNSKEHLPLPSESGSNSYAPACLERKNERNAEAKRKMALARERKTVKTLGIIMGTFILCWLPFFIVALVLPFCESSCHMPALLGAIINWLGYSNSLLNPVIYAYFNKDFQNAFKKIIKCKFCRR
# From the text: D2-D4 dopamine receptors and 5-HT1A serotonin receptors are Gαi-coupled receptors that mediate inhibitory neurotransmission. We conducted [^35S]GTPγS assays to determine the agonist or antagonist properties of l-THBr at D2 dopamine receptors or 5-HT1A serotonin receptors. HEK293 cells stably expressing D2 receptors were provided by the Beijing Institute of Pharmacology and Toxicology (Beijing, China). The membrane preparation of D2-expressing HEK293 cells and rat hippocampal tissues highly expressing 5-HT1A receptors were prepared as previously described. Briefly, 10 SD rats were anesthetized and decapitated, and the hippocampi were quickly dissected and stored at -80°C until use. D2 receptor-expressing HEK293 cells and the hippocampal tissue were each homogenized at 4°C in 50 mM Tris-HCl buffer (pH 7.4). The homogenates were centrifuged at 2500 × g for 6 min, and the supernatant was further centrifuged for 20 min at 40000 × g. Membranes were re-suspended in Tris-HCl buffer and stored at -80°C until use.
# [^35S]GTPγS assays were performed in a total volume of 0.5 ml at 4°C. […] Bound radioactivity was determined by liquid scintillation counting. Drug effects were expressed as drug-induced increase in binding over basal binding (binding in the absence of drugs). […] The inhibitory effect of l–THBr was determined by a similar equation to obtain the IC50 values.
# [5] = target: D1 receptor (Homo sapiens, UniProt P21728); experiment: cAMP assay for D1 receptor activity in CHO cells; format: cell-based
# Chain of D1 receptor (P21728 whole entry): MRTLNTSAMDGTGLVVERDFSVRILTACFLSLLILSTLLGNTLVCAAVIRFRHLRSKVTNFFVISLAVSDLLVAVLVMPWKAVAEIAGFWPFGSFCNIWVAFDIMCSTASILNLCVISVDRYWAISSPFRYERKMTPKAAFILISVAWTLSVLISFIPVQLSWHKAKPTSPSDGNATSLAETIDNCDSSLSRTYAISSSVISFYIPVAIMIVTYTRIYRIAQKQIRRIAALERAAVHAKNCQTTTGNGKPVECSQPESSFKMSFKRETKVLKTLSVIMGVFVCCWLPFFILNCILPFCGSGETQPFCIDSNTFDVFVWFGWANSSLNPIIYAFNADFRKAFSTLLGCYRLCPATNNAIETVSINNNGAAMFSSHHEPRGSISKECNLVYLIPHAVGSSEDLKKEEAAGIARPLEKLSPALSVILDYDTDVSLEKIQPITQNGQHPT
# From the text: Dopamine receptors can be categorized into two classes: Gαs protein coupled receptors (D1 and D5), or Gαi protein coupled receptors (D2, D3, and D4). Activation of D1 receptors can excite adenylate cyclase activity and increase cyclic adenosine monophosphate (cAMP). cAMP assays were used to determine the agonist or antagonist properties of l-THBr at the dopamine D1 receptor.
# CHO K1 cells stably expressing D1 receptors were purchased from Genscript (Catalogue Number: M00247, Gene Number NM_000794). The cells were seeded in Ham’s F12 containing 10% fetal bovine serum and 200 μg/ml zeocin. On the day of the assay, 5 μl of cell suspension (3000 cells) was seeded on a 384-well plate. The assay was performed according to the manufacturer’s instructions. To test for agonist effects at the D1 receptor, the compounds (a known D1 agonist […] or l-THBr) were added from stocks two-fold more concentrated than the final concentration. […] After incubation (30 min at room temperature), 10 μL of HTRF reagents (cAMP-XL665 and anti-cAMP cryptate) were added. The signal was quantified after one hour of incubation at room temperature. The fluorescence intensity ratio (A665nm/A620nm x10^4) was calculated.
# [6] = tested on: Glutamate, Kainate Site (Ionotropic); experiment: Radio-ligand binding assay, Glutamate Kainate site; details: 10 μM l-THBr; radioligand [3H]Kainic acid
# Procedure: as §1
structure (smiles),measurement,setting,value
"COc1ccc2c(c1O)CN1CCc3cc4c(cc3[C@@H]1C2)OCO4 [l-THBr, levo-tetrahydroberberrubine]",Average inhibition percentage,[1],-12.74%
same,number of transitions between the light/dark sides,[2],increased
same,Average inhibition percentage,[3],22.79%
same,EC50,[4],0.235 µM
same,IC50,[5],0.361 µM
same,dose-dependent increase in cAMP production (agonist effect),"[5]; CHO cells stably expressing the D1 receptor, agonist test",but not l-THBr induced a dose-dependent increase
same,inhibition at 10 µM,"[5]; CHO, read-out: maximum inhibition of cAMP production",98.8%
same,Average inhibition percentage,[6],-0.89%
